According to ChEMBL document CHEMBL1128193, “4-(Heteroarylthio)-2-biphenylyltetrazoles as nonpeptide angiotensin II antagonists” (J Med Chem, 1995):

target: T1, Angiotensin II receptor (Rattus norvegicus, UniProt P29089+P25095+P35351); assay: Displacement of [3H]-AII from the Angiotensin II receptor isolated from the liver of rats
T1 sequence (P29089 whole entry): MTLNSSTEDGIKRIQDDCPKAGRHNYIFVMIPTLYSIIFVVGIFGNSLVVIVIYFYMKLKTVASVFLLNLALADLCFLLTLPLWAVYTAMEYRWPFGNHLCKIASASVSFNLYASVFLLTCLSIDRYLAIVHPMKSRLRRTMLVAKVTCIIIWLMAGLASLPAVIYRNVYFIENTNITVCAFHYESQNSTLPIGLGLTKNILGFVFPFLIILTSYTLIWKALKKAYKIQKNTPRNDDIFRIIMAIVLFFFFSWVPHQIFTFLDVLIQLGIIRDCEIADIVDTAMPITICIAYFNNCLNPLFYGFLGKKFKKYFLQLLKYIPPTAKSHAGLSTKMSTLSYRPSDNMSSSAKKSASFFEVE
T1 sequence (P25095 whole entry): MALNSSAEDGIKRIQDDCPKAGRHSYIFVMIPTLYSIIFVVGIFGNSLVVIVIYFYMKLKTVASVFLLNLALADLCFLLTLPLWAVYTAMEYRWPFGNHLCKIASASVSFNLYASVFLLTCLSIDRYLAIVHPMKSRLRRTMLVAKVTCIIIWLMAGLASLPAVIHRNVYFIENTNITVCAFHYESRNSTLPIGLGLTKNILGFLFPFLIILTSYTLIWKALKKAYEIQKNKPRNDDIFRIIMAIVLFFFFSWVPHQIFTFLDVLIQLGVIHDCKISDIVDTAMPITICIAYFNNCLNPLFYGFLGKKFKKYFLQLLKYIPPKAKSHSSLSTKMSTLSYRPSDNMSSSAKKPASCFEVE
T1 sequence (P35351 whole entry): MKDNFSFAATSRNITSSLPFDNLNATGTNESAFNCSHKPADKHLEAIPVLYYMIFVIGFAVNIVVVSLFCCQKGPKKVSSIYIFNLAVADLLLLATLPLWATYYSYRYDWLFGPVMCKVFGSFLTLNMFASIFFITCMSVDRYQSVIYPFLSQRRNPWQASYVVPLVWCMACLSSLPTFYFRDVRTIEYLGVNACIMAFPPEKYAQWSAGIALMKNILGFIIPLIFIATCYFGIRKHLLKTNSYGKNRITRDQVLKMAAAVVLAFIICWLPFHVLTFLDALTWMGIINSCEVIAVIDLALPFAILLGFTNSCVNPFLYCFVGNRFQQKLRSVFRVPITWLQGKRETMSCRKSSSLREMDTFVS

Row | SMILES | IC50 [nM]
1 | Cc1nc(Sc2ccc(-c3ccccc3-c3nn[nH]n3)cc2)c2cc[nH]c2n1 | > 10000
2 | Cc1nc(Sc2ccc(-c3ccccc3-c3nn[nH]n3)cc2)c2ccccc2n1 | 350
3 | Cc1cc(S(=O)(=O)c2ccc(-c3ccccc3-c3nn[nH]n3)cc2)c2ccccc2[n+]1[O-] | > 10000
4 | Cc1cc(SCc2ccc(-c3ccccc3-c3nn[nH]n3)cc2)c2ccccc2n1 | 370
5 | CCc1cc(Sc2ccc(-c3ccccc3-c3nn[nH]n3)cc2)c2ncccc2n1 | 20
6 | Cc1cc(OCc2ccc(-c3ccccc3-c3nn[nH]n3)cc2)c2ccccc2n1 | 31
7 | Cc1cc(CCc2ccc(-c3ccccc3-c3nn[nH]n3)cc2)c2ccccc2n1 | 270
8 | Cc1cc(Sc2ccc(-c3ccccc3-c3nnn(C(c4ccccc4)(c4ccccc4)c4ccccc4)n3)cc2)c2ccccc2n1 | 4700
